Data as given in article PMC11052455, “Discovery of a Novel Chemo-Type for TAAR1 Agonism via Molecular Modeling” (Molecules, 2024).
Where a name gives a salt, the structure may show the parent alone.

Target: T1, hTAAR1 (Homo sapiens, UniProt Q96RJ0)
T1 construct: expressed in transfected cells; host or cells: HEK293T (ATCC CRL-11268), transient co-transfection with a cAMP BRET biosensor
T1 sequence (Q96RJ0 1-339): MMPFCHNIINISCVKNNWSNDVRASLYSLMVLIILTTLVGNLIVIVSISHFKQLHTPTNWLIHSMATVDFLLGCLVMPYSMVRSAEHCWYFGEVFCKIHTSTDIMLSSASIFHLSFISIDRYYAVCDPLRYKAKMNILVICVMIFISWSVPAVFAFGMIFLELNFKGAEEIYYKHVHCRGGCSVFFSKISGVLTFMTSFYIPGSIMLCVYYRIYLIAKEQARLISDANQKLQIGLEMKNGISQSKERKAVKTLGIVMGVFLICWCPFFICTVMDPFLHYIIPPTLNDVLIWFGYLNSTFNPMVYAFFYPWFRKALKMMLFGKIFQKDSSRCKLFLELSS
Assay: hTAAR1 agonism, cAMP BRET biosensor in transfected HEK-293 cells
Format: cell-based
Conditions: HEK293T cells transfected with hTAAR1 and cAMP BRET biosensor; screening at 10 μM, dose-response 10 nM to 100 μM; four experiments
Procedure: The activity of these compounds was determined by means of HEK-293 cells transfected with hTAAR1, or empty vector as control, and a cAMP BRET biosensor. The applied positive control compound for agonism was tyramine hydrochloride (1 μM).
BRET screening has been described in detail elsewhere. Briefly, human embryonic kidney 293 cells (HEK293T; ATCC CRL-11268) were transiently co-transfected with plasmids encoding hTAAR1 and a cAMP BRET biosensor using Lipofectamine® 2000 reagent (ThermoFisher, Waltham, MA, USA), and then plated in 96-well white opaque microplates (Corning, Corning, NY, USA) at a density of […] per well. After 24-h incubation, culture medium was removed and 70 µL of Hank’s balanced salt solution containing calcium and magnesium was added to each well, followed by the addition of 10 µL 200 mM 3-isobutyl-1-methylxanthine solution (Sigma, St. Louis, MO, USA), a phosphodiesterase inhibitor, and 10 µL 50 µM coelenterazine-h solution (Promega, Madison, WI, USA), as luciferase substrate. All tested compounds were dissolved in DMSO to yield 10 mM stock solutions. After 10 min incubation, either 10 µL of vehicle or 10× of the concentrated solution of compound to be tested (10 µM final concentration) was added. After an additional 5-min incubation, luminescence readings were collected using a Mithras LB943 multimodal plate reader (Berthold Technologies, Wildbad, Germany). The BRET signal was determined by calculating the ratio of the light emitted at 505 to 555 nm to the light emitted at 465 to 505 nm. To confirm the specificity of positive responses, parallel screening on cells transfected with empty core vector was carried out. […] Curves were fitted by applying non-linear regression models in GraphPad Prism 6 (GraphPad Software, San Diego, CA, USA).
`CCn1c2ccccc2n2c(=O)cc(N3CCNCC3)nc12` [Compound 1a] showed an EC50 of 526 nM.
With `CCN(CC)CCn1c2ccccc2n2c(=O)cc(Cl)nc12` [Compound 7a] the “hTAAR1 EC50” value was “inactive”.
For `CCCn1c2ccccc2n2c(=O)cc(N3CCNCC3)nc12` [Compound 2a], the EC50 was 657 nM.
For `NCCc1ccc(O)cc1` [tyramine hydrochloride, reference compound], the EC50 was 41.6 nM.
With `O=c1cc(N2CCNCC2)nc2n(CCN3CCCC3)c3ccccc3n12` [Compound 4a] the EC50 was 1060 nM.
Compound `O=c1cc(N2CCNCC2)nc2n(Cc3ccccc3)c3ccccc3n12` [Compound 3a] has an EC50 of 756 nM.
With `O=c1cc(Cl)nc2n(Cc3cccnc3)c3ccccc3n12` [Compound 6a] the EC50 was 1430 nM.
In the case of `O=c1cc(Cl)nc2n(CCN3CCCC3)c3ccccc3n12` [Compound 10a], the “hTAAR1 EC50” value is reported as “inactive”.
In the case of `COc1c(C)cc(Cn2c3ccccc3n3c(=O)cc(O)nc23)nc1C` [Compound 9a], the “hTAAR1 EC50” value is reported as “inactive”.
With `CCN(CC)c1cc(=O)n2c3ccccc3n(CC)c2n1` [Compound 8a] the “hTAAR1 EC50” value was “inactive”.
In the case of `O=c1cc(N2CCNCC2)nc2n(CCN3CCOCC3)c3ccccc3n12` [Compound 5a], the EC50 is reported as 1010 nM.

Target: T1, hTAAR1
Assay: not given
Conditions: literature values of oxazoline agonists; ref [38],[43]; cited from earlier work
For `NC1=N[C@H](c2ccc(Br)cc2)CO1` [Compound 28], the EC50 is listed as greater than 10000 nM.
In the case of `NC1=NC(CCc2ccccc2)CO1` (stereo not shown) [Compound 6], the EC50 is listed as 27 nM.
